Key:
Hela S3 cells = test: Growth inhibitory activity against Hela S3 cells; assay type: cell-based; settings: Cu-free form; Hela S3, 3 days incubation with compound
Procedure: The percentage growth inhibition was calculated using the equation: […] wherein A is the ultimate number of cells on the third day from the addition of a test sample, B is the ultimate number of cells in the control (without the addition of test sample), and C is the number of cells on the day of addition of the test sample.

ICR strain mice = test: Pulmonary toxicity (pulmonary fibrosis) in mice, intraperitoneal injection; assay type: in vivo; settings: 5 mg/kg i.p. once a day for 10 days; for Grade of pulmonary fibrosis, % / Incidence of pulmonary fibrosis, % / Incidence: number of mice suffering from pulmonary fibrosis / Grade: total score of pulmonary fibrosis/total number of test animal: autopsy after 5 weeks; for Incidence: number of mice suffering from pulmonary fibrosis: affected/total mice; for Grade: total score of pulmonary fibrosis/total number of test animal: score 0-6 points; for Grade of pulmonary fibrosis, Ratio / Incidence of pulmonary fibrosis, Ratio: reference of the ratio not stated
How it was run: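 Male ICR mice, 15 weeks old, 9 per group, received 5 mg/kg intraperitoneally once daily for 10 days. They were autopsied after 5 weeks' observation for pulmonary fibrosis incidence and grade: 1, alveolar exudate/septal fibrosis-like change; 2, fibrosis in several areas; 4, scattered fibrosis; 6, fibrosis over >2/3 of area.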

[1] = system: Lymphocytic leukemia P-388; test: In vivo antitumor activity, murine lymphocytic leukemia P-388; settings: BDF1-SLC mice, i.p. transplant, once daily for 9 days, 30 days observation; T/C more than 130 effective
Procedure: The following data with respect to the testing of a group of the presently claimed substances in vivo according to a standard test method involving murine lymphocytic leukemia P-388 is presented to lend further assurance as to the utility of the compounds as inhibitors of mammalian tumors.
Lymphocytic leukemia P-388 cells (1×10^5 /0.2 ml) were transplanted intraperitoneally into male BDF1 -SLC mice (5 mice/group). Each of the compounds of this invention was diluted with physiological saline to various concentrations. Each dilution was administered at a dose of 0.1 ml/10 g of body weight once daily for 9 days, starting on the day after the day of the transplantation. The mice of the control group were administered physiological saline.
The average number of days that the group receiving the compound of this invention survived was calculated. The figure obtained was divided by the average number of survival days for the control group, and was multiplied by 100 (T/C (%)).
T/C value more than 130 was considered to be effective.

Bacillus subtilis = test: Antimicrobial activity, agar plate-cylinder method; assay type: cell-based; settings: Cu-free form; bleomycin A2 (Cu-free form) standard assumed 1,000 mcg/mg
Procedure: (1) Antimicrobial activity against Mycobacterium smegmatis ATCC 697 and Bacillus subtilis.
(§1) The activity was assayed against the above test microorganisms by the method of agar plate-cylinder, assuming the potency of bleomycin A2 (Cu-free form), used as standard, to be 1,000 mcg/mg.

ICR mice = test: Pulmonary toxicity (pulmonary fibrosis) in mice, intratracheal instillation; assay type: in vivo; settings: 16 μg/50 μl/mouse intratracheally, sacrificed 4 weeks after instillation; for Grade: total score of pulmonary fibrosis/total number of samples: score 0-6 points
[2] = system: Mycobacterium smegmatis ATCC 607; test: Antimicrobial activity, agar plate-cylinder method; assay type: cell-based; settings: Cu-free form; bleomycin A2 (Cu-free form) standard assumed 1,000 mcg/mg
Procedure: as §1

[3] = system: CDF1 /SLC strain male mice; test: Acute toxicity, LD50 on 10 consecutive days; assay type: in vivo; settings: subcutaneous, Behrens-Karber method
Procedure: LD50 was assayed by administering several representative compounds of this invention for 10 consecutive days.
CDF1 /SLC strain male mice (each 6 weeks old, 7 members per group) were subcutaneously administered with various compounds of this invention, the dose being different with each compound. LD50 (daily dose) was estimated from the mortality during the administration period by the Behrens-Karber method.

SMILES | 50% growth inhibition concentration (ID50) of Cu--free compound against cultured Hela cell (Hela S3 cells) [µg/mL] | Grade of pulmonary fibrosis, % (ICR strain mice) [%] | Incidence of pulmonary fibrosis, % (ICR strain mice) [%] | Incidence: number of mice suffering from pulmonary fibrosis (ICR strain mice) | Grade: total score of pulmonary fibrosis/total number of test animal (ICR strain mice) | Grade of pulmonary fibrosis, Ratio (ICR strain mice) | Incidence of pulmonary fibrosis, Ratio (ICR strain mice) | Max. T/C on Mouse Lymphocytic Leukemia P 388 [1] [%] | Antimicrobial potency of Cu--free compound, against Bacillus subtilis (Bacillus subtilis) [mcg potency per mg] | Grade of pulmonary fibrosis, % (ICR mice) [%] | Incidence of pulmonary fibrosis, % (ICR mice) [%] | Incidence: number of mice with pulmonary fibrosis/number of mice (ICR mice) | Grade: total score of pulmonary fibrosis/total number of samples (ICR mice) | Antimicrobial potency of Cu--free compound, against Mycobacterium smegmatis ATCC 607 [2] [mcg potency per mg] | LD50 (daily dose) [3] [mg/kg/day]
Cc1c(N)nc(C(CC(N)=O)NCC(N)C(N)=O)nc1C(=O)NC(C(=O)NC(C)C(O)C(C)C(=O)NC(C(=O)NCCc1nc(-c2nc(C(=O)NCCC[N+](C)(C)CCCN(Cc3ccccc3)Cc3ccccc3)cs2)cs1)C(C)O)C(OC1OC(CO)C(O)C(O)C1OC1OC(CO)C(O)C(OC(N)=O)C1O)c1cnc[nH]1 (centres unmarked) [compound 35, 3-{N,N--Dimethyl-N--[3'-(dibenzylamino)propyl]amino}propylaminoBLM] | 0.87 | 0 | 0 | 0/9 | 0/27 | 0.00 | 0.00 | 153 | 1742 | 8 | 25 | 2/8 | 2/24 | 13784 | 
Cc1c(N)nc(C(CC(N)=O)NCC(N)C(N)=O)nc1C(=O)NC(C(=O)NC(C)C(O)C(C)C(=O)NC(C(=O)NCCc1nc(-c2nc(C(=O)NCCCN(C)CCCN(Cc3ccc(OCc4ccccc4)c(OCc4ccccc4)c3)Cc3ccc(OCc4ccccc4)c(OCc4ccccc4)c3)cs2)cs1)C(C)O)C(OC1OC(CO)C(O)C(O)C1OC1OC(CO)C(O)C(OC(N)=O)C1O)c1cnc[nH]1 (centres unmarked) [Compound No. 34, 3-{N--Methyl-N--[3'-(bis(m,p-dibenzyloxybenzyl)amino)propyl]amino}propylaminoBLM] | 0.38 | 0 | 0 | 0/9 | 0/27 | 0.00 | 0.00 | 205 | 49 |  |  |  |  | 164 | 60.0
Cc1c(N)nc(C(CC(N)=O)NCC(N)C(N)=O)nc1C(=O)NC(C(=O)NC(C)C(O)C(C)C(=O)NC(C(=O)NCCc1nc(-c2nc(C(=O)NCCCN(C)CCCNCc3ccc(OCc4ccccc4)c(OCc4ccccc4)c3)cs2)cs1)C(C)O)C(OC1OC(CO)C(O)C(O)C1OC1OC(CO)C(O)C(OC(N)=O)C1O)c1cnc[nH]1 (centres unmarked) [compound 15] | 0.36 | 4 | 11 | 1/9 | 1/27 | 0.05 | 0.18 | 165 | 1772 | 4 | 13 | 1/8 | 1/24 | 4516 | 
Cc1c(N)nc(C(CC(N)=O)NCC(N)C(N)=O)nc1C(=O)NC(C(=O)NC(C)C(O)C(C)C(=O)NC(C(=O)NCCc1nc(-c2nc(C(=O)NCCCN(C)CCCN(Cc3ccccc3)Cc3ccccc3)cs2)cs1)C(C)O)C(OC1OC(CO)C(O)C(O)C1OC1OC(CO)C(O)C(OC(N)=O)C1O)c1cnc[nH]1 (centres unmarked) [compound 27, 3-{N--Methyl-N--[3'-(dibenzylamino)propyl]amino}propylaminoBLM] | 0.89 | 7 | 20 | 1/5 | 1/15 | 0.08 | 0.32 | 149 | 1138 | 7 | 22 | 2/9 | 2/27 | 14194 | 

— US4568490A, “Aminopropylaminobleomycin derivatives and process for preparation thereof” (Zaidan Hojin Biseibutsu Kagaku Kenkyu Kai, priority 1981, dated 1986)
